Results: US9770195B2, “Automated scratch detection system and signal processing algorithm for the study of pruritus in animals” (The Regents of the University of California, priority 2012, dated 2017)
Entries after “also recorded” stand apart in the source; their conditions may differ. Where two headings read alike, the source gives them in different places.

Columns and labels:
C57Bl/6 mice [1] = assay: Pruritogen-evoked hind paw scratching counted by the paw motion detector (PMD) in mice; assay type: in vivo; conditions: mouse; for scratching behavior evoked by the pruritogen: injection to dorsolateral neck, ipsilateral paw, 60 min; for dose response of scratching: histamine 0.111-11.1 g/mL, chloroquine 0.1-2 mg/mL, 48/80 0.125-0.5 mg/mL
Description: Data acquisition is then initiated. […] The PMD detects the movement of a non-ferrous metal band placed around one hind paw of the rodent (for the mouse the band weight=0.1 g while for the rat the band weight=0.5 g). There are two distinct bands one for the rat and one for the mouse (see the band in Yaksh et al., 2001). The testing apparatus consists of cylindrical chambers (mouse: 8.5 cm diameter/22.5 cm tall; rat: 15 cm diameter/30 cm tall). Under each cylinder is a pair of circular concentric electromagnetic coils, which serve respectively as antennas for transmission and reception. […] The transmitter coil assembly is constructed to emit a 5-8 mW, 6-8 kHz, sinusoidal electromagnetic field (Blue Max 800 Precision scan search coil White's Electronics, Inc., OR). The detection principal is that Eddy currents created by the movements of the ferrous and nonferrous metals perturb the EM field. Such perturbations produce an output waveform and are subsequently detected (Yaksh et al., 2001). The analog signal from the sensing coil assembly is fed into a standard National Instruments based signal acquisition A-D converter system ([…] or PCI-MI0-16Xe-10 National Instruments Corp.) driven into a standard LabView based software (Lab view v.5.1 National Instruments Corporation, Austin, Tex.). The signal is filtered, amplified, and digitized (sampling rate of 1000 Hz, 12-bit resolution). This signal (conditioned signal in FIG. 2) is then entered and passed through a two component-triggering algorithm configured in the Lab view program. In the first phase, the processed signal is sent through an algorithm to establish a scratch movement trigger. In this phase, the processed signal is subjected to a “zero-crossing interval-peak height” analysis based on the signal amplitude in a sliding time window (see Yaksh et al., 2001). The range of voltages (1-0.01 V) over a moving 128-ms interval is configured to produce a continuous output waveform. […] The signal is then smoothed by using a non-weighted moving average filter. The smoothed range waveform is examined in real time by a peak-detection algorithm set to pick out spikes of >500 ms and amplitudes of >0.3 V. Each peak provided a trigger signal, which is represented by a red line on the automated system's display, see FIG. 3. The signal is then processed through a second level algorithm to define bursting. A high frequency scratching burst, which we will now call a microburst, is defined as multiple trigger signals occurring within a specified moving window time frame (e.g. 2 trigger signals within a 1.15 s time frame) without double counting trigger signals. […] Paw movement events meeting the criteria of a scratch microburst are captured and summed at 1-min increments by default (and can be summed from 1 s to 60 min increments). Summed data are stored in Microsoft Excel compatible spreadsheets.

C57Bl/6 mice [2] = conditions: mouse; for effect on chloroquine (1 mg/mL) evoked scratching: diphenhydramine 1 mg/kg IP
Holtzman rats = assay: SQ 48/80-evoked homolateral scratching in the rat (PMD, Example 2); assay type: in vivo; conditions: diphenhydramine 1 mg/kg IP with SQ 48/80
Description: Data acquisition is then initiated.
The PMD detects the movement of a non-ferrous metal band placed around one hind paw of the rodent (for the mouse the band weight=0.1 g while for the rat the band weight=0.5 g). There are two distinct bands one for the rat and one for the mouse (see the band in Yaksh et al., 2001). The testing apparatus consists of cylindrical chambers (mouse: 8.5 cm diameter/22.5 cm tall; rat: 15 cm diameter/30 cm tall). Under each cylinder is a pair of circular concentric electromagnetic coils, which serve respectively as antennas for transmission and reception. Outer coil diameters for the mouse and rat are 12 cm and 20 cm, respectively. The transmitter coil assembly is constructed to emit a 5-8 mW, 6-8 kHz, sinusoidal electromagnetic field (Blue Max 800 Precision scan search coil White's Electronics, Inc., OR). The detection principal is that Eddy currents created by the movements of the ferrous and nonferrous metals perturb the EM field. Such perturbations produce an output waveform and are subsequently detected (Yaksh et al., 2001).

CCN(CC)CCCC(C)Nc1ccnc2cc(Cl)ccc12 (stereo not drawn) [chloroquine]
cumulative macroburst counts, 48/80 vs chloroquine (C57Bl/6 mice [1]; 1 hour, SQ 48/80 0.5 mg/mL vs chloroquine 1 mg/mL, N=5, p<0.001): significantly different
scratching behavior evoked by the pruritogen (C57Bl/6 mice [1]): vigorous scratching; also recorded: significant scratching incidence
average macrobursts (C57Bl/6 mice [1]; over 1 hour after SQ 48/80 0.5 mg/mL or chloroquine 1 mg/mL, N=5, FFT transformed): 8.4
dose response of scratching (C57Bl/6 mice [1]): inverse u shape dose response curve
dose response of scratching (C57Bl/6 mice [1]; listed as Chloroquine): inverse U shaped dose response curve; also recorded: inverse u-shaped dose response curve

CN(C)CCOC(c1ccccc1)c1ccccc1 [diphenhydramine, Diphenhydramine]
effect on scratching produced by 48/80 (C57Bl/6 mice [2]; diphenhydramine 0.1 mg/kg IP, 30 min pretreatment, SQ 48/80 0.5 mg/mL): complete reversal of scratching
effect on chloroquine (1 mg/mL) evoked scratching (C57Bl/6 mice [2]; 30 min pretreatment): lower mean microburst count than those treated with chloroquine alone, but this was not statistically significant
effect on chloroquine (1 mg/mL) evoked scratching (C57Bl/6 mice [2]; 30 min pretreatment, listed as Diphenhydramine): no statistically significant effect
effect on SQ histamine-evoked scratching (C57Bl/6 mice [2]; diphenhydramine, dose not stated): reversed
effect on scratching produced by 48/80 (C57Bl/6 mice [2]; higher doses of diphenhydramine (0.3, 1 mg/kg IP)): suppression of behavior as compared to saline treated animals
effect on 48/80-evoked scratching, across doses (C57Bl/6 mice [2]; increasing doses of IP diphenhydramine): attenuated in an equally dose dependent fashion; also recorded: reversed
effect on 48/80-evoked scratching (Holtzman rats): significant reduction in the observed magnitude of scratching

Cl.Cl.NCCc1c[nH]cn1 [histamine, Histamine dihydrochloride]
scratching behavior evoked by the pruritogen (C57Bl/6 mice [1]): vigorous scratching
dose response of scratching (C57Bl/6 mice [1]; dihydrochloride): robust dose dependent scratching

CCN(CC)CC(=O)Nc1c(C)cccc1C [lidocaine]
effect on histamine-evoked scratching (C57Bl/6 mice [2]; SQ lidocaine 2.5% injected into the site 5 min prior to histamine): blocked the scratching behavior
